Assay results: US6525001B1, “Substituted pyrimidine and pyridine herbicides” (Mid-American Commercialization Corporation, priority 1997, dated 2003)

Assays:
Format in all cases: in vivo
[1] = tested on: bedstraw (Galium aparine); assay: Test B pre-/postemergence; set-up: key: 0 is no effect; 10 is complete control; conditions: for Bedstraw plant response rating: Preemergence
From the text: (§1) Seeds of bedstraw (Galium aparine), blackgrass (Alopecurus myosuroides), broadleaf signalgrass (Brachiaria decumbens), cocklebur (Xanthium strumarium), corn (Zea mays), crabgrass (Digitaria sanguinalis), giant foxtail (Setaria faberii), lambsquarters (Chenopodium album), momingglory (Ipomoea hederacea), pigweed (Amaranthus retroflexus), rape (Brassica napus), soybean (Glycine max), sugar beet (Beta vulgaris), velvetleaf (Abutilon theophrasti), wheat (Triticum aestivum), wild oat (Avena fatua) and purple nutsedge (Cyperus rotundus) tubers were planted and treated preemergence with test chemicals formulated in a non-phytotoxic solvent mixture which included a surfactant.
(§2) At the same time, these crop and weed species were also treated with postemergence applications of test chemicals formulated in the same manner. Plants ranged in height from 2 to 18 cm (1- to 4-leaf stage) for postemergence treatments. Plant species in the flood test consisted of rice (Oryza sativa), smallflower flatsedge (Cyperus difformis), duck salad (Heteranthera limosa) and bamyardgrass (Echinochloa crus-galli) grown to the 2-leaf stage for testing. Treated plants and controls were maintained in a greenhouse for twelve to sixteen days, after which all species were compared to controls and visually evaluated. Plant response ratings, summarized in Table B, are based on a scale of 0 to 10 where 0 is no effect and 10 is complete control. A dash (−) response means no test result.

[2] = tested on: blackgrass (Alopecurus myosuroides); assay: Test B pre-/postemergence; set-up: key: 0 is no effect; 10 is complete control; conditions: for Blackgrass plant response rating: Preemergence
From the text: as §1, §2

[3] = tested on: broadleaf signalgrass (Brachiaria decumbens); assay: Test B pre-/postemergence; set-up: key: 0 is no effect; 10 is complete control; conditions: for B. signalgrass plant response rating: Preemergence
From the text: as §1, §2

[4] = tested on: cocklebur (Xanthium strumarium); assay: Test B pre-/postemergence; set-up: key: 0 is no effect; 10 is complete control; conditions: for Cocklebur plant response rating: Preemergence
From the text: as §1, §2

[5] = tested on: corn (Zea mays); assay: Test B pre-/postemergence; set-up: key: 0 is no effect; 10 is complete control; conditions: for Corn plant response rating: Preemergence
From the text: as §1, §2

[6] = tested on: crabgrass (Digitaria sanguinalis); assay: Test B pre-/postemergence; set-up: key: 0 is no effect; 10 is complete control; conditions: for Crabgrass plant response rating: Preemergence
From the text: as §1, §2

[7] = tested on: giant foxtail (Setaria faberii); assay: Test B pre-/postemergence; set-up: key: 0 is no effect; 10 is complete control
From the text: as §1, §2

[8] = tested on: momingglory (Ipomoea hederacea); assay: Test B pre-/postemergence; set-up: key: 0 is no effect; 10 is complete control
From the text: as §1, §2

[9] = tested on: pigweed (Amaranthus retroflexus); assay: Test B pre-/postemergence; set-up: key: 0 is no effect; 10 is complete control
From the text: as §1, §2

[10] = tested on: rape (Brassica napus); assay: Test B pre-/postemergence; set-up: key: 0 is no effect; 10 is complete control
From the text: as §1, §2

[11] = tested on: soybean (Glycine max); assay: Test B pre-/postemergence; set-up: key: 0 is no effect; 10 is complete control
From the text: as §1, §2

[12] = tested on: sugar beet (Beta vulgaris); assay: Test B pre-/postemergence; set-up: key: 0 is no effect; 10 is complete control
From the text: as §1, §2

[13] = tested on: velvetleaf (Abutilon theophrasti); assay: Test B pre-/postemergence; set-up: key: 0 is no effect; 10 is complete control
From the text: as §1, §2

[14] = tested on: wheat (Triticum aestivum); assay: Test B pre-/postemergence; set-up: key: 0 is no effect; 10 is complete control
From the text: as §1, §2

[15] = tested on: wild oat (Avena fatua); assay: Test B pre-/postemergence; set-up: key: 0 is no effect; 10 is complete control
From the text: as §1, §2

[16] = tested on: bamyardgrass (Echinochloa crus-galli); assay: Test B flood test
Protocol: as §2

[17] = tested on: duck salad (Heteranthera limosa); assay: Test B flood test
Protocol: as §2

[18] = tested on: rice (Oryza sativa); assay: Test B flood test
Protocol: as §2

[19] = tested on: smallflower flatsedge (Cyperus difformis); assay: Test B flood test
Protocol: as §2

[20] = Rate 250 g/ha, Postemergence (so in the source)
[21] = Rate 62 g/ha, Postemergence (flood test)
[22] = Rate 125 g/ha, Postemergence, flood test
[23] = Rate 250 g/ha, Postemergence (flood test species)
[24] = Rate 125 g/ha, Postemergence section (flood test species)

Structure (SMILES): CCc1cnc(-n2cnc(C(F)(F)F)c2)nc1Cc1cccc(OC(F)(F)F)c1 [Compound 49]
- Plant response rating, Bedstraw ([1]; Rate 62 g/ha, Postemergence): 9
- Bedstraw plant response rating ([1]; Rate 62 g/ha): 4
- Bedstraw plant response rating ([1]; Rate 125 g/ha): 7
- Plant response rating, Bedstraw [1, 20]: 8
- Plant response rating, Blackgrass ([2]; Rate 62 g/ha, Postemergence): 5
- Blackgrass plant response rating ([2]; Rate 62 g/ha): 4
- Plant response rating, Blackgrass ([2]; Rate 125 g/ha, Postemergence): 6
- Blackgrass plant response rating ([2]; Rate 125 g/ha): 4
- Plant response rating, Blackgrass ([2]; Rate 250 g/ha, Postemergence): 6
- Plant response rating, Blackgrass [2, 20]: 6
- Plant response rating, B. signalgrass ([3]; Rate 62 g/ha, Postemergence): 2
- B. signalgrass plant response rating ([3]; Rate 62 g/ha): 0
- Plant response rating, B. signalgrass ([3]; Rate 125 g/ha, Postemergence): 3
- B. signalgrass plant response rating ([3]; Rate 125 g/ha): 1
- Plant response rating, B. signalgrass ([3]; Rate 250 g/ha, Postemergence): 4
- Plant response rating, B. signalgrass ([3]; Rate 250 g/ha, Postemergence as printed in head r139 (second section for compounds 26-50)): 5
- Plant response rating, Cocklebur ([4]; Rate 62 g/ha, Postemergence): 7
- Cocklebur plant response rating ([4]; Rate 62 g/ha): 0
- Plant response rating, Cocklebur ([4]; Rate 125 g/ha, Postemergence): 7
- Cocklebur plant response rating ([4]; Rate 125 g/ha): 0
- Plant response rating, Cocklebur ([4]; Rate 250 g/ha, Postemergence): 9
- Plant response rating, Cocklebur [4, 20]: 2
- Plant response rating, Corn ([5]; Rate 62 g/ha, Postemergence): 3
- Corn plant response rating ([5]; Rate 62 g/ha): 0
- Plant response rating, Corn ([5]; Rate 125 g/ha, Postemergence): 3
- Corn plant response rating ([5]; Rate 125 g/ha): 1
- Plant response rating, Corn ([5]; Rate 250 g/ha, Postemergence): 4
- Plant response rating, Corn [5, 20]: 1
- Plant response rating, Crabgrass ([6]; Rate 62 g/ha, Postemergence): 5
- Crabgrass plant response rating ([6]; Rate 62 g/ha): 5
- Plant response rating, Crabgrass ([6]; Rate 125 g/ha, Postemergence): 6
- Crabgrass plant response rating ([6]; Rate 125 g/ha): 7
- Plant response rating, Crabgrass ([6]; Rate 250 g/ha, Postemergence): 9
- Plant response rating, Crabgrass [6, 20]: 9
- Plant response rating, Giant foxtail ([7]; Rate 62 g/ha, Postemergence): 2
- Giant foxtail plant response rating ([7]; Rate 62 g/ha, Preemergence): 5
- Giant foxtail plant response rating ([7]; Rate 125 g/ha, Postemergence): 5
- Giant foxtail plant response rating ([7]; Rate 125 g/ha, Preemergence): 8
- Plant response rating, Giant foxtail ([7]; Rate 250 g/ha, Postemergence): 5
- Plant response rating, Giant foxtail [7, 20]: 9
- Plant response rating, Morningglory ([8]; Rate 62 g/ha, Postemergence): 2
- Morningglory plant response rating ([8]; Rate 62 g/ha, Preemergence): 1
- Morningglory plant response rating ([8]; Rate 125 g/ha, Postemergence): 6
- Morningglory plant response rating ([8]; Rate 125 g/ha, Preemergence): 3
- Plant response rating, Morningglory ([8]; Rate 250 g/ha, Postemergence): 9
- Plant response rating, Morningglory [8, 20]: 4
- Plant response rating, Redroot pigweed ([9]; Rate 62 g/ha, Postemergence): 9
- Redroot pigweed plant response rating ([9]; Rate 62 g/ha, Preemergence): 8
- Redroot pigweed plant response rating ([9]; Rate 125 g/ha, Postemergence): 9
- Redroot pigweed plant response rating ([9]; Rate 125 g/ha, Preemergence): 8
- Plant response rating, Redroot pigweed ([9]; Rate 250 g/ha, Postemergence): 9
- Plant response rating, Redroot pigweed [9, 20]: 10
- Plant response rating, Rape ([10]; Rate 62 g/ha, Postemergence): 9
- Rape plant response rating ([10]; Rate 62 g/ha, Preemergence): 7
- Rape plant response rating ([10]; Rate 125 g/ha, Postemergence): 9
- Rape plant response rating ([10]; Rate 125 g/ha, Preemergence): 8
- Plant response rating, Rape ([10]; Rate 250 g/ha, Postemergence): 9
- Plant response rating, Rape [10, 20]: 10
- Plant response rating, Soybean ([11]; Rate 62 g/ha, Postemergence): 6
- Soybean plant response rating ([11]; Rate 62 g/ha, Preemergence): 0
- Soybean plant response rating ([11]; Rate 125 g/ha, Postemergence): 7
- Plant response rating, Soybean ([11]; Rate 125 g/ha, Preemergence): 1
- Plant response rating, Soybean ([11]; Rate 250 g/ha, Postemergence): 7
- Plant response rating, Soybean [11, 20]: 1
- Plant response rating, Sugarbeets ([12]; Rate 62 g/ha, Postemergence): 9
- Sugarbeets plant response rating ([12]; Rate 62 g/ha, Preemergence): 6
- Sugarbeets plant response rating ([12]; Rate 125 g/ha, Postemergence): 9
- Plant response rating, Sugarbeets ([12]; Rate 125 g/ha, Preemergence): 6
- Plant response rating, Sugarbeets ([12]; Rate 250 g/ha, Postemergence): 9
- Plant response rating, Sugarbeets [12, 20]: 9
- Plant response rating, Velvetleaf ([13]; Rate 62 g/ha, Postemergence): 8
- Velvetleaf plant response rating ([13]; Rate 62 g/ha, Preemergence): 3
- Velvetleaf plant response rating ([13]; Rate 125 g/ha, Postemergence): 8
- Plant response rating, Velvetleaf ([13]; Rate 125 g/ha, Preemergence): 8
- Plant response rating, Velvetleaf ([13]; Rate 250 g/ha, Postemergence): 9
- Plant response rating, Velvetleaf [13, 20]: 8
- Wheat plant response rating ([14]; Rate 62 g/ha, Postemergence): 4
- Wheat plant response rating ([14]; Rate 62 g/ha, Preemergence): 1
- Wheat plant response rating ([14]; Rate 125 g/ha, Postemergence): 5
- Plant response rating, Wheat ([14]; Rate 125 g/ha, Preemergence): 4
- Plant response rating, Wheat ([14]; Rate 250 g/ha, Postemergence): 5
- Plant response rating, Wheat [14, 20]: 4
- Wild oats plant response rating ([15]; Rate 62 g/ha, Postemergence): 5
- Wild oats plant response rating ([15]; Rate 62 g/ha, Preemergence): 2
- Wild oats plant response rating ([15]; Rate 125 g/ha, Postemergence): 6
- Plant response rating, Wild oats ([15]; Rate 125 g/ha, Preemergence): 6
- Plant response rating, Wild oats ([15]; Rate 250 g/ha, Postemergence): 7
- Plant response rating, Wild oats [15, 20]: 7
- Plant response rating, Barnyardgrass [16, 21]: 5
- Plant response rating, Barnyardgrass [16, 22]: 5
- Plant response rating, Barnyardgrass [16, 23]: 6
- Plant response rating, Ducksalad [17, 21]: 4
- Plant response rating, Ducksalad [17, 22]: 4
- Plant response rating, Ducksalad [17, 23]: 4
- Plant response rating, Rice [18, 21]: 3
- Rice plant response rating [18, 24]: 4
- Plant response rating, Rice [18, 23]: 5
- Plant response rating, S. Flatsedge [19, 21]: 4
- S. Flatsedge plant response rating [19, 24]: 4
- Plant response rating, S. Flatsedge [19, 23]: 9
